ChEMBL document CHEMBL1158169, “Functionalized chalcones with basic functionalities have antibacterial activity against drug sensitive Staphylococcus aureus” (Eur J Med Chem, 2008)
Values after ≈ are worked out from the molar mass of the structure shown.

Tests used:
Staphylococcus aureus [1] = assay: Antibacterial activity against methicillin-sensitive Staphylococcus aureus ATCC 13150 after 20 hrs by microdilution assay; assay type: functional
Escherichia coli = assay: Antibacterial activity against Escherichia coli ATCC 49696 after 20 hrs by microdilution assay; assay type: functional; settings: ATCC 49696, 20 h
Staphylococcus aureus [2] = assay: Antibacterial activity against methicillin-resistant Staphylococcus aureus; assay type: functional
Staphylococcus aureus [3] = assay: Antibacterial activity against Staphylococcus aureus; assay type: functional
[4] = Toxicity in sheep erythrocytes assessed as hemolysis at 100 uM after 90 mins; assay type: cell-based, Ovis aries, Erythrocyte; settings: read-out: Activity
[5] = Toxicity in sheep erythrocytes assessed as hemolysis at 25 uM after 90 mins; assay type: cell-based, Ovis aries, Erythrocyte; settings: read-out: Activity
[6] = Toxicity in sheep erythrocytes assessed as hemolysis at 300 uM after 90 mins; assay type: cell-based, Ovis aries, Erythrocyte; settings: read-out: Activity
[7] = Staphylococcus aureus, ATCC 13150, 20 h, read-out: MIC

SMILES | MIC (Staphylococcus aureus [1]; [7]) | MIC (Escherichia coli) | other results
CCN1CCC(c2cc(C(=O)/C=C/c3ccc(Cl)cc3)c(OC)cc2OC)CC1 | 50 µM (≈ 20.7 µg/mL) | > 100 µM | –
COc1cc(OC)c(C2CCN(C)CC2)c(O)c1C(=O)/C=C/c1ccc(F)cc1 | > 100 µM | > 100 µM | –
O=C(/C=C/c1ccccc1)c1cccc(N2CCNCC2)c1 | > 100 µM | > 100 µM | –
COc1cc(O)c(C(=O)/C=C/c2ccccc2OC)cc1C | > 100 µM | > 100 µM | –
O=C(/C=C/c1ccccc1)c1cccc(N2CCCCC2)c1 | > 100 µM | > 100 µM | –
COc1ccc(C(=O)/C=C/c2ccc(N3CCN(C)CC3)cc2)c(OC)c1 | > 100 µM | > 100 µM | –
COc1ccc(C2CCN(C)CC2)cc1C(=O)/C=C/c1ccccc1Cl | > 100 µM | > 100 µM | –
COc1ccc(C(=O)/C=C/c2ccccc2)c(OC)c1 | > 100 µM | > 100 µM | –
Cc1cc(C)cc(-c2ccc(N3CCNCC3)c(/C=C/C(=O)c3ccc(NCCN(C)C)cc3)c2)c1 | – | – | MIC (Staphylococcus aureus [2]): 2 µM (≈ 0.965 µg/mL)
COc1cc(OC)c(C2CCN(C)CC2)cc1C(=O)/C=C/c1ccccc1Cl (stereo in doubt; 7-140) | – | – | MIC (Staphylococcus aureus [1]): >100 µM
O=C(/C=C/c1ccccc1Cl)c1cccc(N2CCCCC2)c1 | > 100 µM | > 100 µM | –
COc1cc(OC)c(C2CCN(C)CC2)cc1C(=O)/C=C/c1ccc(C(F)(F)F)cc1 | 50 µM (≈ 21.7 µg/mL) | > 100 µM | –
O=C(O)c1ccc(C(=O)/C=C/c2cc(C(F)(F)F)cc(C(F)(F)F)c2)cc1 | – | – | MIC (Staphylococcus aureus [3]): 2 µM (≈ 0.777 µg/mL)
COc1ccc(C(=O)/C=C/c2ccccn2)c(OC)c1 | > 100 µM | > 100 µM | –
O=C(O)c1ccc(C(=O)/C=C/c2cc(Br)cc(Br)c2)cc1 | – | – | MIC (Staphylococcus aureus [3]): 2 µM (≈ 0.82 µg/mL)
COc1cc(O)c(C(=O)/C=C/c2ccc(F)cc2)cc1C1CCN(C)CC1 | > 100 µM | > 100 µM | –
C=CC(C)(C)c1cc(/C=C/C(=O)c2ccc(O)cc2)c(OC)cc1O [LICOAGROCHACONE A] | 6.3 µM (≈ 2.13 µg/mL) | > 100 µM | MIC (Staphylococcus aureus [2]): 18.4 µM (≈ 6.23 µg/mL); hemolysis at 1.5 h, 100 µM [4]: 19.9%; hemolysis at 1.5 h, 25 µM [5]: 11.6%; hemolysis at 1.5 h, 300 µM [6]: 47.9%
COc1cc(OC)c(C2CCN(C)CC2)c(O)c1C(=O)/C=C/c1ccc(N2CCN(C)CC2)cc1 | > 100 µM | > 100 µM | –
COc1cc(OC)c(C2CCN(C)CC2)cc1C(=O)/C=C/c1ccccc1C | > 100 µM | > 100 µM | –
CN1CCC(c2ccc(O)c(C(=O)/C=C/c3ccccc3Cl)c2)CC1 | 25 µM (≈ 8.9 µg/mL) | > 100 µM | hemolysis at 1.5 h, 100 µM [4]: 14.8%
COc1ccc(C2CCN(C)CC2)cc1C(=O)/C=C/c1ccc(Cl)cc1 | > 100 µM | > 100 µM | –

SMILES | MIC (Staphylococcus aureus [1]; [7]) | MIC (Escherichia coli) | other results
COc1ccccc1/C=C/C(=O)c1c(OC)cc(OC)c(C2CCN(C)CC2)c1O | 50 µM (≈ 20.6 µg/mL) | > 100 µM | –
COc1ccc(C(=O)/C=C/c2ccncc2)c(OC)c1 [DILMEFONE] | > 100 µM | > 100 µM | –
COc1cc(OC)c(C2CCN(C)CC2)cc1C(=O)/C=C/c1ccccn1 | > 100 µM | > 100 µM | –
COc1cc(OC)c(C2CCN(C)CC2)c(O)c1C(=O)/C=C/c1ccc(N(C)C)cc1 | 25 µM (≈ 10.6 µg/mL) | > 100 µM | hemolysis at 1.5 h, 100 µM [4]: 10.3%
CCN1CCC(c2cc(C(=O)/C=C/c3ccncc3)c(OC)cc2OC)CC1 | > 100 µM | > 100 µM | –
CCN1CCC(c2cc(C(=O)/C=C/c3ccccc3)c(OC)cc2OC)CC1 | > 100 µM | > 100 µM | –
COc1cc(OC)c(N2CCC(N3CCCCC3)CC2)cc1C(=O)/C=C/c1ccccc1F | > 100 µM | > 100 µM | –
COc1cc(OC)c(C2CCN(C)CC2)c(O)c1C(=O)/C=C/c1ccc(Cl)cc1 | 25 µM (≈ 10.4 µg/mL) | > 100 µM | hemolysis at 1.5 h, 100 µM [4]: 5.5%
COc1cc(OC)c(C2CCN(C)CC2)cc1C(=O)/C=C/c1ccccc1Cl (stereo in doubt; 1-5) | – | > 100 µM | MIC (Staphylococcus aureus [1]): 25 µM (≈ 10 µg/mL)
COc1cc(OC)c(C2CCN(C)CC2)c(O)c1C(=O)/C=C/c1ccccc1Cl | 50 µM (≈ 20.8 µg/mL) | > 100 µM | –
COc1ccc(C(=O)/C=C/c2ccc(Cl)cc2)c(OC)c1 | > 100 µM | > 100 µM | –
CCN1CCC(c2cc(C(=O)/C=C/c3ccccc3Cl)c(OC)cc2OC)CC1 | > 100 µM | > 100 µM | –
COc1ccc(/C=C/C(=O)c2cccc(N3CCCCC3)c2)c(OC)c1 | > 100 µM | > 100 µM | –
CC1(C)S[C@@H]2[C@H](NC(=O)Cc3ccccc3)C(=O)N2[C@H]1C(=O)O [PENICILLIN G] | 0.1 µM (≈ 0.0334 µg/mL) | – | –
COc1ccc(C2CCN(C)CC2)cc1C(=O)/C=C/c1ccccc1 | 100 µM (≈ 33.5 µg/mL) | > 100 µM | –
COc1ccc(/C=C/C(=O)c2c(OC)cc(OC)c(C3CCN(C)CC3)c2O)cc1 | 50 µM (≈ 20.6 µg/mL) | > 100 µM | –
COc1ccccc1/C=C/C(=O)c1cc(C2CCN(C)CC2)c(OC)cc1OC | > 100 µM | > 100 µM | –
COc1cc(O)c(C(=O)/C=C/c2ccccc2)cc1C | > 100 µM | > 100 µM | –
COc1cc(OC)c(C2CCN(C)CC2)cc1C(=O)/C=C/c1ccccc1F | > 100 µM | > 100 µM | –
COc1cc(OC)c(C2CCN(C)CC2)cc1C(=O)/C=C/c1ccncc1 | > 100 µM | > 100 µM | –

More lines, main results first:

MIC (Staphylococcus aureus [1]; [7]) | MIC (Escherichia coli) | SMILES | other results
> 100 µM | > 100 µM | COc1ccc(C(=O)/C=C/c2ccccc2Cl)c(OC)c1 | –
> 100 µM | > 100 µM | O=C(/C=C/c1ccccc1Cl)c1cccc(N2CCNCC2)c1 | –
> 100 µM | > 100 µM | COc1cc(OC)c(C2CCN(C)CC2)c(O)c1C(=O)/C=C/c1ccc(C#N)cc1 | –
> 100 µM | > 100 µM | COc1ccc(C(=O)/C=C/c2cccnc2)c(OC)c1 | –
> 100 µM | > 100 µM | COc1cc(OC)c(N2CCC(N3CCCCC3)CC2)cc1C(=O)/C=C/c1ccccc1Cl | –
> 100 µM | > 100 µM | COc1cc(O)c(C(=O)/C=C/c2ccccc2Cl)cc1C | –
> 100 µM | > 100 µM | COc1cc(OC)c(C2CCN(C)CC2)cc1C(=O)/C=C/c1ccccc1 | –
> 100 µM | > 100 µM | COc1cc(OC)c(C2CCN(C)CC2)c(O)c1C(=O)/C=C/c1ccccc1 | –
> 100 µM | > 100 µM | COc1ccc(/C=C/C(=O)c2cc(C3CCN(C)CC3)c(OC)cc2OC)cc1 | –
25 µM (≈ 8.17 µg/mL) | > 100 µM | O=C(/C=C/c1ccc(Cl)cc1)c1cccc(N2CCNCC2)c1 | hemolysis at 1.5 h, 100 µM [4]: 11.6%
> 100 µM | > 100 µM | COc1cc(OC)c(C2CCN(C)CC2)cc1C(=O)/C=C/c1ccc(Cl)cc1 | –
> 100 µM | > 100 µM | O=C(/C=C/c1ccc(Cl)cc1)c1cccc(N2CCCCC2)c1 | –
> 100 µM | > 100 µM | COc1cc(OC)c(C2CCN(C)CC2)c(O)c1C(=O)/C=C/c1ccc(C(F)(F)F)cc1 | –
100 µM (≈ 35.2 µg/mL) | > 100 µM | COc1ccc(/C=C/C(=O)c2cccc(N3CCNCC3)c2)c(OC)c1 | –
> 100 µM | > 100 µM | COc1cc(OC)c(C2CCN(C)CC2)cc1C(=O)/C=C/c1cccnc1 | –
> 100 µM | > 100 µM | COc1ccc(/C=C/C(=O)c2c(OC)cc(OC)c(C3CCN(C)CC3)c2O)c(OC)c1 | –
6.25 µM (≈ 2.6 µg/mL) | > 100 µM | COc1cc(OC)c(C2CCN(C)CC2)c(O)c1C(=O)/C=C/c1cccc(Cl)c1 | hemolysis at 1.5 h, 100 µM [4]: 6.5%
6.25 µM (≈ 2.47 µg/mL) | > 100 µM | COc1cc(OC)c(C2CCN(C)CC2)c(O)c1C(=O)/C=C/c1ccc(C)cc1 | hemolysis at 1.5 h, 100 µM [4]: 6.7%
> 100 µM | > 100 µM | COc1cc(OC)c(C2CCN(C)CC2)cc1C(=O)/C=C/c1ccc(C)cc1 | –
50 µM (≈ 19.8 µg/mL) | > 100 µM | COc1cc(OC)c(C2CCN(C)CC2)c(O)c1C(=O)/C=C/c1ccccc1C | –
> 100 µM | > 100 µM | CCN1CCC(c2cc(C(=O)/C=C/c3ccc(N4CCN(C)CC4)cc3)c(OC)cc2OC)CC1 | –
> 100 µM | > 100 µM | COc1cc(OC)c(C2CCN(C)CC2)c(O)c1C(=O)/C=C/c1ccccc1F | –
> 100 µM | > 100 µM | COc1cccc(/C=C/C(=O)c2c(OC)cc(OC)c(C3CCN(C)CC3)c2O)c1 | –
> 100 µM | > 100 µM | COc1cc(OC)c(C2CCN(C)CC2)cc1C(=O)/C=C/c1ccc(N2CCN(C)CC2)cc1 | –
